Organism: Rattus norvegicus
Experiment: Open TG-GATES - Regimen: Daily Repeat
Type: toxicity, organism-based, Sprague-Dawley
Parameters: regimen Daily Repeat, gender Male, age 6 weeks
Settings: in vivo, po, 0 mg/kg, route gavage, dose level Control; for APTT / Bas / Eos / Fbg / Hb / Ht / Lym / MCH / MCHC / MCV / Mono / Neu / PT / Plat / RBC / Ret / WBC: tissue Blood; for KIDNEY_L / KIDNEY_R / KIDNEY_TOTAL: tissue Kidney; for LIVER: tissue Liver; for A/G / ALP / ALT / AST / BUN / CRE / Ca / Cl / DBIL / GLC / IP / K / LDH / Na / PL / RALB / TBIL / TC / TG / TP / gamma-GTP: tissue Plasma

Structure (SMILES): NNC(=O)c1ccncc1 [ISONIAZID]
- TERMINAL_BW (72 h, time 3 day): 219.4 g
- APTT (72 h, time 3 day): 14.3 s
- Bas (72 h, time 3 day): 0.2%
- Eos (72 h, time 3 day): 2%
- Fbg (72 h, time 3 day): 229.4 mg/dL
- Hb (72 h, time 3 day): 13.6 g/dL
- Ht (72 h, time 3 day): 40.8%
- Lym (72 h, time 3 day): 74%
- MCH (72 h, time 3 day): 21.7 pg
- MCHC (72 h, time 3 day): 33.2%
- MCV (72 h, time 3 day): 65.2 fL
- Mono (72 h, time 3 day): 8.8%
- Neu (72 h, time 3 day): 15.6%
- PT (72 h, time 3 day): 12.1 s
- Plat (72 h, time 3 day): 120.9 x10_4/uL
- RBC (72 h, time 3 day): 626.2 x10_4/ul
- Ret (72 h, time 3 day): 8.2%
- WBC (72 h, time 3 day): 101.8 x10_2/uL
- KIDNEY_L (72 h, time 3 day): 0.9 g
- KIDNEY_R (72 h, time 3 day): 1 g
- KIDNEY_TOTAL (72 h, time 3 day): 1.9 g
- LIVER (72 h, time 3 day): 11.3 g
- A/G (72 h, time 3 day): 1.8
- ALP (72 h, time 3 day): 836.8 IU/L
- ALT (72 h, time 3 day): 33.6 IU/L
- AST (72 h, time 3 day): 61.8 IU/L
- BUN (72 h, time 3 day): 19 mg/dL
- CRE (72 h, time 3 day): 0.5 mg/dL
- Ca (72 h, time 3 day): 10.8 mg/dL
- Cl (72 h, time 3 day): 103.8 meq/L
- DBIL (72 h, time 3 day): 0.068 mg/dL
- GLC (72 h, time 3 day): 209.2 mg/dL
- IP (72 h, time 3 day): 7.6 mg/dL
- K (72 h, time 3 day): 5.1 meq/L
- LDH (72 h, time 3 day): 102 IU/L
- Na (72 h, time 3 day): 139.4 meq/L
- PL (72 h, time 3 day): 163.4 mg/dL
- RALB (72 h, time 3 day): 3.8 g/dL
- TBIL (72 h, time 3 day): 0.3 mg/dL
- TC (72 h, time 3 day): 85.8 mg/dL
- TG (72 h, time 3 day): 110.2 mg/dL
- TP (72 h, time 3 day): 6 g/dL
- gamma-GTP (72 h, time 3 day): 1.6 IU/L
- TERMINAL_BW ([…], time 7 day): 251.9 g
- TERMINAL_BW ([…], time 14 day): 294 g
- TERMINAL_BW ([…], time 28 day): 374.9 g
- APTT ([…], time 7 day): 14.6 s
- Bas ([…], time 7 day): 0%
- Eos ([…], time 7 day): 1%
- Fbg ([…], time 7 day): 235 mg/dL
- Hb ([…], time 7 day): 13.8 g/dL
- Ht ([…], time 7 day): 41.5%
- Lym ([…], time 7 day): 76.8%
- MCH ([…], time 7 day): 21.4 pg
- MCHC ([…], time 7 day): 33.4%
- MCV ([…], time 7 day): 64.2 fL
- Mono ([…], time 7 day): 10.2%
- Neu ([…], time 7 day): 11.6%
- PT ([…], time 7 day): 12 s
- Plat ([…], time 7 day): 127.4 x10_4/uL
- RBC ([…], time 7 day): 646.4 x10_4/ul
- Ret ([…], time 7 day): 6%
- WBC ([…], time 7 day): 108.1 x10_2/uL
- APTT ([…], time 14 day): 16.1 s
- Bas ([…], time 14 day): 0%
- Eos ([…], time 14 day): 1.2%
- Fbg ([…], time 14 day): 224.2 mg/dL
- Hb ([…], time 14 day): 15.1 g/dL
- Ht ([…], time 14 day): 44.9%
- Lym ([…], time 14 day): 78.2%
- MCH ([…], time 14 day): 20.3 pg
- MCHC ([…], time 14 day): 33.5%
- MCV ([…], time 14 day): 60.6 fL
- Mono ([…], time 14 day): 5.5%
- Neu ([…], time 14 day): 14.8%
- PT ([…], time 14 day): 11.8 s
- Plat ([…], time 14 day): 114.6 x10_4/uL
- RBC ([…], time 14 day): 740.8 x10_4/ul
- Ret ([…], time 14 day): 3.9%
- WBC ([…], time 14 day): 109.8 x10_2/uL
- APTT ([…], time 28 day): 15.9 s
- Bas ([…], time 28 day): 0%
- Eos ([…], time 28 day): 1.2%
- Fbg ([…], time 28 day): 227.4 mg/dL
- Hb ([…], time 28 day): 15.5 g/dL
- Ht ([…], time 28 day): 46%
- Lym ([…], time 28 day): 85.8%
- MCH ([…], time 28 day): 19.7 pg
- MCHC ([…], time 28 day): 33.8%
- MCV ([…], time 28 day): 58.2 fL
- Mono ([…], time 28 day): 3.2%
- Neu ([…], time 28 day): 9.2%
- PT ([…], time 28 day): 12 s
- Plat ([…], time 28 day): 106.3 x10_4/uL
- RBC ([…], time 28 day): 790.6 x10_4/ul
- Ret ([…], time 28 day): 2.5%
- WBC ([…], time 28 day): 140.8 x10_2/uL
- KIDNEY_L ([…], time 7 day): 1.1 g
- KIDNEY_R ([…], time 7 day): 1.1 g
- KIDNEY_TOTAL ([…], time 7 day): 2.2 g
- KIDNEY_L ([…], time 14 day): 1.1 g
- KIDNEY_R ([…], time 14 day): 1.1 g
- KIDNEY_TOTAL ([…], time 14 day): 2.2 g
- KIDNEY_L ([…], time 28 day): 1.3 g
- KIDNEY_R ([…], time 28 day): 1.3 g
- KIDNEY_TOTAL ([…], time 28 day): 2.6 g
- LIVER ([…], time 7 day): 12.3 g
- LIVER ([…], time 14 day): 13.3 g
- LIVER ([…], time 28 day): 15.5 g
- A/G ([…], time 7 day): 1.7
- ALP ([…], time 7 day): 884.4 IU/L
- ALT ([…], time 7 day): 33 IU/L
- AST ([…], time 7 day): 56.6 IU/L
- BUN ([…], time 7 day): 19.6 mg/dL
- CRE ([…], time 7 day): 0.5 mg/dL
- Ca ([…], time 7 day): 10.6 mg/dL
- Cl ([…], time 7 day): 105 meq/L
- DBIL ([…], time 7 day): 0.074 mg/dL
- GLC ([…], time 7 day): 223.8 mg/dL
- IP ([…], time 7 day): 8.4 mg/dL
- K ([…], time 7 day): 5 meq/L
- LDH ([…], time 7 day): 115.2 IU/L
- Na ([…], time 7 day): 140.4 meq/L
- PL ([…], time 7 day): 163 mg/dL
- RALB ([…], time 7 day): 3.7 g/dL
- TBIL ([…], time 7 day): 0.3 mg/dL
- TC ([…], time 7 day): 81.6 mg/dL
- TG ([…], time 7 day): 130.2 mg/dL
- TP ([…], time 7 day): 5.9 g/dL
- gamma-GTP ([…], time 7 day): 1.2 IU/L
- A/G ([…], time 14 day): 1.6
- ALP ([…], time 14 day): 783.8 IU/L
- ALT ([…], time 14 day): 29.6 IU/L
- AST ([…], time 14 day): 62 IU/L
- BUN ([…], time 14 day): 19.2 mg/dL
- CRE ([…], time 14 day): 0.6 mg/dL
- Ca ([…], time 14 day): 10.4 mg/dL
- Cl ([…], time 14 day): 106.8 meq/L
- DBIL ([…], time 14 day): 0.002 mg/dL
- GLC ([…], time 14 day): 213.2 mg/dL
- IP ([…], time 14 day): 7.9 mg/dL
- K ([…], time 14 day): 5.1 meq/L
- LDH ([…], time 14 day): 160 IU/L
- Na ([…], time 14 day): 139.4 meq/L
- PL ([…], time 14 day): 151 mg/dL
- RALB ([…], time 14 day): 3.6 g/dL
- TBIL ([…], time 14 day): 0.3 mg/dL
- TC ([…], time 14 day): 76.4 mg/dL
- TG ([…], time 14 day): 144 mg/dL
- TP ([…], time 14 day): 5.9 g/dL
- gamma-GTP ([…], time 14 day): 0.4 IU/L
- A/G ([…], time 28 day): 1.4
- ALP ([…], time 28 day): 751.6 IU/L
- ALT ([…], time 28 day): 26.8 IU/L
- AST ([…], time 28 day): 56.4 IU/L
- BUN ([…], time 28 day): 19.4 mg/dL
- CRE ([…], time 28 day): 0.5 mg/dL
- Ca ([…], time 28 day): 10 mg/dL
- Cl ([…], time 28 day): 104.6 meq/L
- DBIL ([…], time 28 day): 0.06 mg/dL
- GLC ([…], time 28 day): 208.8 mg/dL
- IP ([…], time 28 day): 7.2 mg/dL
- K ([…], time 28 day): 4.4 meq/L
- LDH ([…], time 28 day): 73.4 IU/L
- Na ([…], time 28 day): 142.2 meq/L
- PL ([…], time 28 day): 141.8 mg/dL
- RALB ([…], time 28 day): 3.6 g/dL
- TBIL ([…], time 28 day): 0.2 mg/dL
- TC ([…], time 28 day): 70.6 mg/dL
- TG ([…], time 28 day): 125.6 mg/dL
- TP ([…], time 28 day): 6.2 g/dL
- gamma-GTP ([…], time 28 day): 1.4 IU/L
